Results taken from patent publication EP4717275A1, “ANTI-LUNG CANCER COMBINED DRUG AND USE THEREOF” (Gunagdong Yinzhu Pharmaceutical Technology Co., Ltd, priority 2023, dated 2024).
“And” between values parts separate entries of the source, which are not always exact repeats. Equal entries are not always repeated. Where two headings read alike, the source gives them in different places. Marks after values point to notes of the source that are not given here.

Tests used:
[1] = Animal body weight, fatality and toxicity observation in the NCI-H2228 xenograft study; assay type: in vivo, BALB/c Nude mice; conditions: dead/total animals at Day 21; NCI-H2228 study; PO, QD×21
Text: (§1) BALB/c Nude mice, female, 8-10 weeks old, 18-20g. The variation of the body weight is ±20% around average body weight. 80 mice were inoculated and 60 mice were grouped.
(§2) The grouping day was designated as Day 0, and administration commenced according to animal body weight.
(§3) The same as the therapeutic effect evaluation experiments for Examples 1-2 and Comparative Examples 1-3.

NCI-H2228 cell = assay: CCK8 proliferation assay with combination index analysis; assay type: cell-based, human; conditions: CAI alone
Procedure: CCK8 method was used to evaluate the effect of the drugs towards proliferation of lung cancer cell line (NCI-H2228 cell). The cellular viability with different concentration of drug was assayed and the 50% inhibitory concentration was calculated.
Emerge NCI-H2228 cells (purchased from American Type Culture Collection (ATCC, Manassas, VA, USA)) from liquid nitrogen and thaw in a 37°C water bath. After thawing, culture cells in 1640 medium.
When cell density reached 90% confluence in culture medium, cells were digested with 0.25% trypsin and resuspended. After cell growth stabilized, cells in the logarithmic growth phase were harvested and counted using a cell counter and it was ensured that viability exceeded 85% for all cell lines.
Adjust cell concentration by diluting with culture medium. Add 100 µL of cell suspension to a 96-well plate to achieve a density of 3000 cells/well. Add 100 µL of PBS buffer to the wells around the cell-seeded wells.
Incubate the 96-well plate at 37°C, 5% CO2, and 95% humidity overnight.
Remove the cell culture plate from the incubator, aspirate the culture medium, and add the prepared drug-containing medium. Incubate at 37°C, 5% CO2, and 95% humidity for 72 hours.
Add 10 µL of CCK-8 solution to each well of the 96-well plate. Incubate the plate in the cell culture incubator for 1.5 hours. Measure the absorbance at 450 nm using a microplate reader.
Analyze data using GraphPad Prism 5.0 software. Fit the data using nonlinear S-curve regression to generate a dose-response curve and calculate the IC50 value. [formula]
The analysis of the combination index of the compound was performed using the median effect principle. The formula for the combination index of two compounds is: CI = (D)1/(Dx)1 + (D)2/(Dx)2 [formula]
Where: • (D)1---- The concentration of Compound 1 when compound 1 was used with another compound and the effect X was generated; • (D)2---- The concentration of Compound 2 when compound 2 was used with another compound and the effect X was generated; • (Dx)1---- The concentration of Compound 1 when compound 1 was used alone and the effect X was generated; • (Dx)2---- The concentration of Compound 2 when compound 2 was used alone and the effect X was generated.
The CI value enables quantitative assessment of the nature and strength of interactions between different compounds (Table 2). Interaction strength is measured using the weighted average CI (CIwt), calculated by the formula: CIwt = (CI50+2CI75+3CI90+4CI95)/10 [formula]
Where: • CI50 ---- CI value at EC50 (concentration achieving 50% effect) • CI75, CI90, and CI95 follow the same principle, representing the CI values at EC75, EC90, and EC95, respectively.
Evaluation of the combination effect: CI value is used to evaluate the combination effect, and the judgment method is shown in Table 7. Table 7 Judgment criteria of the results

mouse melanoma = conditions: transplanted tumors, dexamethasone by intraperitoneal injection; cited from earlier work
[2] = assay type: in vivo; conditions: dead/total animals at Day 21; NCI-H1975 study; PO, QD×21
Procedure: as §1, §2
Animal body weight and tumor volume were measured twice weekly throughout the experiment. Tumor length and width were measured using a digital caliper, with tumor volume estimated from these measurements.
Clinical observations were recorded daily to assess overall health status, weight abnormalities, behavioral changes, and other treatment-related adverse reactions.
In accordance with animal welfare regulations, animals meeting any of the following criteria during the study were removed from the experimental group and euthanized: 1. Body weight loss exceeding 20% compared to Day 0 (BWL ≥ 20%); 2. Severe adverse reactions such as blindness or paralysis; 3. Tumor volume exceeding 2000 mm^3; 4.
The animal body weight change rate (%BWC) is calculated as: (BWt - BW0) / BW0 × 100%, where BWt is the animal body weight at each measurement and BW0 is the animal body weight at grouping.
According to China's NMPA Technical Guidance Principles for Non-clinical Studies of Cytotoxic Antineoplastic Drugs (November 2006), %T/CRTV ≤ 40% and statistically significant P < 0.05 indicate efficacy. Drug-related animal mortality exceeding 20% indicates severe toxicity at that dose.
All experimental data in this study are expressed as Mean ± SEM.

[3] = tested on: human lung cancer NCI-H2228 xenografts; assay: Therapeutic effect in vivo on NCI-H2228 xenografts in nude mice; design: species or system BALB/c Nude mice; conditions: PO; for Relative tumor proliferation rate(%) Day 21: %T/CRTV; for Tumor growth inhibition rate(%) Day 21: %TGITV from tumor volume vs control; for Tumor growth inhibition rate(%) Day 21 / Tumor volume (mm^3,Mean±SEM) Day 21 / Relative tumor volume Day 21: QD× 21; for Tumor inhibition rate(%) Day 21: %TGITW from tumor weight vs control; for Tumor volume (mm^3,Mean±SEM) Day 21: QD×21, dose per group; for Relative tumor volume Day 21: RTV = Vt/V0, Mean ± SEM
Procedure: as §1
Table 9 Experimental design of therapeutic effect of the drugs in vivo
NCI-H2228 cells were cultured in RPMI 1640 medium supplemented with 10% FBS and maintained in a 37°C, 5% CO2 humidified incubator.
Log-phase NCI-H2228 cells were harvested, resuspended in RPMI 1640 basal medium containing 50% Matrigel, and adjusted to a concentration of 2 × 10^7 cells/mL. Under aseptic conditions, 0.1 mL of the cell suspension was injected subcutaneously into the right flank of mice at a concentration of 2 × 10^6 cells/0.1 mL/mouse.
When the mean tumor volume reached approximately 150 mm^3, animals were randomly grouped based on tumor volume, ensuring inter-group tumor volume variation was less than 10% of the mean.
as §2, §3

[4] = QD×21, listed as Comparative Example 5
[5] = QD×21, listed as Comparative Example 6
[6] = QD×21, listed as Comparative Example 5, CAI, 20mg /kg
[7] = QD×21, listed as Comparative Example 6, CAI, 40mg /kg

## NC(=O)c1nnn(Cc2cc(Cl)c(C(=O)c3ccc(Cl)cc3)c(Cl)c2)c1N [CAI, 5-Amino-1-[3,5-dichloro-4-(4-chlorobenzoyl chloride)benzyl]-1H-1,2,3-triazole-4-benzamide]
[1]
  Fatality: 0/10 (Day 21)
NCI-H2228 cell; single plates 1-3, 72 hours, read-out: IC50 (CAI)
  IC50: 22.9 µM and 23 µM
NCI-H2228 cell; Homo sapiens, NCI-H2228, 72 h, average of 3 plates, read-out: IC50 (CAI)
  IC50: 22.8 µM
NCI-H2228 cell; Homo sapiens, NCI-H2228, 72 h, single plates 1-3, read-out: IC50 (CAI)
  IC50: 22.4 µM
Mouse melanoma
  inhibition rate: 39.8%
[2]
  Fatality: 0/10 (Day 21)
[3]; [4]
  Relative tumor proliferation rate(%) Day 21: 69.94%
  Tumor inhibition rate(%) Day 21: 39.40%
  Tumor weight (g,Mean±SEM) Day 21: 0.529 ± 0.055 g
[3]; [5]
  Relative tumor proliferation rate(%) Day 21: 68.46%
  Tumor inhibition rate(%) Day 21: 42.96%
  Tumor weight (g,Mean±SEM) Day 21: 0.498 ± 0.059 g
[3]; [6]
  Tumor growth inhibition rate(%) Day 21: 33.39%
  Relative tumor volume Day 21: 6.12±0.29
[3]; [7]
  Tumor growth inhibition rate(%) Day 21: 34.01%
  Relative tumor volume Day 21: 5.99±0.48
[3]; listed as Comparative Example 5, CAI, 20mg /kg
  Tumor volume (mm^3,Mean±SEM) Day 21: 979.25± 64.93* mm^3
[3]; listed as Comparative Example 6, CAI, 40mg /kg
  Tumor volume (mm^3,Mean±SEM) Day 21: 970.11± 102.46* mm^3
